Strand notation (5' to 3'): a small letter for the sugar, then the base; units joined by * are phosphorothioate-linked, units joined directly phosphodiester-linked; [ ] holds rarer units or linkages, { } end groups; capitals alone tell only the bases. e = 2'-O-(2-methoxyethyl) (MOE); [5mC] = 5-methylcytosine; d = 2'-deoxy (DNA)
The substances below were run on human Factor 11 mRNA (assay: Antisense inhibition of human Factor 11 in HepG2 cells by microwalk gapmers, lipofectin, 75 nM (Example 3)). Conditions: HepG2, lipofectin, ~24 h, gapmers targeted to nucleobases 656 to 704 of SEQ ID NO: 1.
Assay type: cell-based
How it was run: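 HepG2 cells (10,000/well) were transfected via lipofectin with 75 nM 20-mer MOE gapmers (phosphorothioate, 5-methyl-C) for about 24 h. Factor 11 mRNA was measured by qRT-PCR, normalized to RIBOGREEN total RNA, and given as percent inhibition versus untreated cells.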

Q: With “416946 (antisense eA*eA*dA*dT*dG*dT*d[5mC]*dT*dT*dT*dG*dT*dT*dG*d[5mC]*eA*eA*eG*e[5mC]*eG) [compound 416946]” as the substance, how does the “% inhibition” value read?
A: 86%

Q: How did the “% inhibition” value turn out when “416947 (antisense eT*eA*dA*dA*dT*dG*dT*d[5mC]*dT*dT*dT*dG*dT*dT*dG*e[5mC]*eA*eA*eG*e[5mC]) [compound 416947]” was run?
A: 62%

Q: With “416948 (antisense eA*eT*dA*dA*dA*dT*dG*dT*d[5mC]*dT*dT*dT*dG*dT*dT*eG*e[5mC]*eA*eA*eG) [compound 416948]” as the substance, how does the “% inhibition” value read?
A: 62%

Q: “416949 (antisense e[5mC]*eA*dT*dA*dA*dA*dT*dG*dT*d[5mC]*dT*dT*dT*dG*dT*eT*eG*e[5mC]*eA*eA) [compound 416949]” was tested. Which “% inhibition” value did it give?
A: 64%

Q: For “416950 (antisense eA*e[5mC]*dA*dT*dA*dA*dA*dT*dG*dT*d[5mC]*dT*dT*dT*dG*eT*eT*eG*e[5mC]*eA) [compound 416950]”, which “% inhibition” value is on record?
A: 71%

Q: Which “% inhibition” value does the source give for “416951 (antisense e[5mC]*eA*d[5mC]*dA*dT*dA*dA*dA*dT*dG*dT*d[5mC]*dT*dT*dT*eG*eT*eT*eG*e[5mC]) [compound 416951]” here?
A: 48%

Q: How did the “% inhibition” value turn out when “416952 (antisense e[5mC]*e[5mC]*dA*d[5mC]*dA*dT*dA*dA*dA*dT*dG*dT*d[5mC]*dT*dT*eT*eG*eT*eT*eG) [compound 416952]” was run?
A: 51%

Q: Which “% inhibition” value does the source give for “416953 (antisense eT*e[5mC]*d[5mC]*dA*d[5mC]*dA*dT*dA*dA*dA*dT*dG*dT*d[5mC]*dT*eT*eT*eG*eT*eT) [compound 416953]” here?
A: 45%

Q: “416954 (antisense eG*eT*d[5mC]*d[5mC]*dA*d[5mC]*dA*dT*dA*dA*dA*dT*dG*dT*d[5mC]*eT*eT*eT*eG*eT) [compound 416954]” was tested. Which “% inhibition” value did it give?
A: 61%

Q: “416955 (antisense eG*eG*dT*d[5mC]*d[5mC]*dA*d[5mC]*dA*dT*dA*dA*dA*dT*dG*dT*e[5mC]*eT*eT*eT*eG) [compound 416955]” was tested. Which “% inhibition” value did it give?
A: 75%

Q: How did the “% inhibition” value turn out when “416956 (antisense eA*eG*dG*dT*d[5mC]*d[5mC]*dA*d[5mC]*dA*dT*dA*dA*dA*dT*dG*eT*e[5mC]*eT*eT*eT) [compound 416956]” was run?
A: 61%

Q: With “416957 (antisense eT*eA*dG*dG*dT*d[5mC]*d[5mC]*dA*d[5mC]*dA*dT*dA*dA*dA*dT*eG*eT*e[5mC]*eT*eT) [compound 416957]” as the substance, how does the “% inhibition” value read?
A: 59%

Q: How did the “% inhibition” value turn out when “416958 (antisense e[5mC]*eT*dA*dG*dG*dT*d[5mC]*d[5mC]*dA*d[5mC]*dA*dT*dA*dA*dA*eT*eG*eT*e[5mC]*eT) [compound 416958]” was run?
A: 43%

Q: “416959 (antisense eT*e[5mC]*dT*dA*dG*dG*dT*d[5mC]*d[5mC]*dA*d[5mC]*dA*dT*dA*dA*eA*eT*eG*eT*e[5mC]) [compound 416959]” was tested. Which “% inhibition” value did it give?
A: 25%

Q: With “416960 (antisense eG*eT*d[5mC]*dT*dA*dG*dG*dT*d[5mC]*d[5mC]*dA*d[5mC]*dA*dT*dA*eA*eA*eT*eG*eT) [compound 416960]” as the substance, how does the “% inhibition” value read?
A: 60%

Q: Which “% inhibition” value does the source give for “416961 (antisense eT*eG*dT*d[5mC]*dT*dA*dG*dG*dT*d[5mC]*d[5mC]*dA*d[5mC]*dA*dT*eA*eA*eA*eT*eG) [compound 416961]” here?
A: 40%

Q: How did the “% inhibition” value turn out when “416962 (antisense eA*eT*dG*dT*d[5mC]*dT*dA*dG*dG*dT*d[5mC]*d[5mC]*dA*d[5mC]*dA*eT*eA*eA*eA*eT) [compound 416962]” was run?
A: 77%

Q: For “416963 (antisense e[5mC]*eA*dT*dG*dT*d[5mC]*dT*dA*dG*dG*dT*d[5mC]*d[5mC]*dA*d[5mC]*eA*eT*eA*eA*eA) [compound 416963]”, which “% inhibition” value is on record?
A: 48%

Q: With “416964 (antisense eT*e[5mC]*dA*dT*dG*dT*d[5mC]*dT*dA*dG*dG*dT*d[5mC]*d[5mC]*dA*e[5mC]*eA*eT*eA*eA) [compound 416964]” as the substance, how does the “% inhibition” value read?
A: 69%

Q: “416965 (antisense eT*eT*d[5mC]*dA*dT*dG*dT*d[5mC]*dT*dA*dG*dG*dT*d[5mC]*d[5mC]*eA*e[5mC]*eA*eT*eA) [compound 416965]” was tested. Which “% inhibition” value did it give?
A: 53%

Q: Which “% inhibition” value does the source give for “416966 (antisense e[5mC]*eT*dT*d[5mC]*dA*dT*dG*dT*d[5mC]*dT*dA*dG*dG*dT*d[5mC]*e[5mC]*eA*e[5mC]*eA*eT) [compound 416966]” here?
A: 64%

Q: How did the “% inhibition” value turn out when “416967 (antisense e[5mC]*e[5mC]*dT*dT*d[5mC]*dA*dT*dG*dT*d[5mC]*dT*dA*dG*dG*dT*e[5mC]*e[5mC]*eA*e[5mC]*eA) [compound 416967]” was run?
A: 75%

Q: “416968 (antisense e[5mC]*e[5mC]*d[5mC]*dT*dT*d[5mC]*dA*dT*dG*dT*d[5mC]*dT*dA*dG*dG*eT*e[5mC]*e[5mC]*eA*e[5mC]) [compound 416968]” was tested. Which “% inhibition” value did it give?
A: 73%

Q: How did the “% inhibition” value turn out when “416970 (antisense eT*eG*d[5mC]*d[5mC]*d[5mC]*dT*dT*d[5mC]*dA*dT*dG*dT*d[5mC]*dT*dA*eG*eG*eT*e[5mC]*e[5mC]) [compound 416970]” was run?
A: 88%

Q: For “416971 (antisense eA*eT*dG*d[5mC]*d[5mC]*d[5mC]*dT*dT*d[5mC]*dA*dT*dG*dT*d[5mC]*dT*eA*eG*eG*eT*e[5mC]) [compound 416971]”, which “% inhibition” value is on record?
A: 83%

Q: With “416974 (antisense eT*eT*dT*dA*dT*dG*d[5mC]*d[5mC]*d[5mC]*dT*dT*d[5mC]*dA*dT*dG*eT*e[5mC]*eT*eA*eG) [compound 416974]” as the substance, how does the “% inhibition” value read?
A: 73%

Same assay, conditions: HepG2 cells, lipofectin, gapmers targeted to nucleobases 738 to 762 of SEQ ID NO: 1

Q: “416975 (antisense e[5mC]*e[5mC]*dG*dT*dG*d[5mC]*dA*dT*d[5mC]*dT*dT*dT*d[5mC]*dT*dT*eG*eG*e[5mC]*eA*eT) [compound 416975]” was tested. Which “% inhibition” value did it give?
A: 87%

Q: Which “% inhibition” value does the source give for “416976 (antisense eT*e[5mC]*d[5mC]*dG*dT*dG*d[5mC]*dA*dT*d[5mC]*dT*dT*dT*d[5mC]*dT*eT*eG*eG*e[5mC]*eA) [compound 416976]” here?
A: 83%

Q: For “416977 (antisense eA*eT*d[5mC]*d[5mC]*dG*dT*dG*d[5mC]*dA*dT*d[5mC]*dT*dT*dT*d[5mC]*eT*eT*eG*eG*e[5mC]) [compound 416977]”, which “% inhibition” value is on record?
A: 82%

Q: Which “% inhibition” value does the source give for “416978 (antisense e[5mC]*eA*dT*d[5mC]*d[5mC]*dG*dT*dG*d[5mC]*dA*dT*d[5mC]*dT*dT*dT*e[5mC]*eT*eT*eG*eG) [compound 416978]” here?
A: 76%

Q: With “416979 (antisense eT*e[5mC]*dA*dT*d[5mC]*d[5mC]*dG*dT*dG*d[5mC]*dA*dT*d[5mC]*dT*dT*eT*e[5mC]*eT*eT*eG) [compound 416979]” as the substance, how does the “% inhibition” value read?
A: 63%

Q: “416980 (antisense eG*eT*d[5mC]*dA*dT*d[5mC]*d[5mC]*dG*dT*dG*d[5mC]*dA*dT*d[5mC]*dT*eT*eT*e[5mC]*eT*eT) [compound 416980]” was tested. Which “% inhibition” value did it give?
A: 87%

Same assay, conditions: HepG2 cells, lipofectin, gapmers targeted to nucleobases 1018 to 1042 of SEQ ID NO: 1

Q: “416981 (antisense e[5mC]*e[5mC]*dG*dG*dG*dA*dT*dG*dA*dT*dG*dA*dG*dT*dG*e[5mC]*eA*eG*eA*eT) [compound 416981]” was tested. Which “% inhibition” value did it give?
A: 87%

Q: With “416982 (antisense eA*e[5mC]*d[5mC]*dG*dG*dG*dA*dT*dG*dA*dT*dG*dA*dG*dT*eG*e[5mC]*eA*eG*eA) [compound 416982]” as the substance, how does the “% inhibition” value read?
A: 84%

Q: For “416983 (antisense eA*eA*d[5mC]*d[5mC]*dG*dG*dG*dA*dT*dG*dA*dT*dG*dA*dG*eT*eG*e[5mC]*eA*eG) [compound 416983]”, which “% inhibition” value is on record?
A: 86%

Same assay, conditions: HepG2 cells, lipofectin, gapmers targeted to nucleobases 1062 to 1091 of SEQ ID NO: 1

Q: For “416986 (antisense eA*eT*dT*d[5mC]*dT*dT*dT*dG*dG*dG*d[5mC]*d[5mC]*dA*dT*dT*e[5mC]*e[5mC]*eT*eG*eG) [compound 416986]”, which “% inhibition” value is on record?
A: 88%

Q: Which “% inhibition” value does the source give for “416987 (antisense eG*eA*dT*dT*d[5mC]*dT*dT*dT*dG*dG*dG*d[5mC]*d[5mC]*dA*dT*eT*e[5mC]*e[5mC]*eT*eG) [compound 416987]” here?
A: 80%

Q: “416988 (antisense eA*eG*dA*dT*dT*d[5mC]*dT*dT*dT*dG*dG*dG*d[5mC]*d[5mC]*dA*eT*eT*e[5mC]*e[5mC]*eT) [compound 416988]” was tested. Which “% inhibition” value did it give?
A: 76%

Q: For “416990 (antisense eT*eG*dA*dG*dA*dT*dT*d[5mC]*dT*dT*dT*dG*dG*dG*d[5mC]*e[5mC]*eA*eT*eT*e[5mC]) [compound 416990]”, which “% inhibition” value is on record?
A: 76%

Q: “416991 (antisense eT*eT*dG*dA*dG*dA*dT*dT*d[5mC]*dT*dT*dT*dG*dG*dG*e[5mC]*e[5mC]*eA*eT*eT) [compound 416991]” was tested. Which “% inhibition” value did it give?
A: 87%

Q: How did the “% inhibition” value turn out when “416992 (antisense eT*eT*dT*dG*dA*dG*dA*dT*dT*d[5mC]*dT*dT*dT*dG*dG*eG*e[5mC]*e[5mC]*eA*eT) [compound 416992]” was run?
A: 84%

Q: With “416994 (antisense eT*e[5mC]*dT*dT*dT*dG*dA*dG*dA*dT*dT*d[5mC]*dT*dT*dT*eG*eG*eG*e[5mC]*e[5mC]) [compound 416994]” as the substance, how does the “% inhibition” value read?
A: 83%

Same assay, conditions: HepG2 cells, lipofectin, gapmers targeted to nucleobases 1275 to 1318 of SEQ ID NO: 1

Q: With “416938 (antisense eA*eG*e[5mC]*dG*dG*dA*d[5mC]*dG*dG*d[5mC]*dA*dT*dT*dG*dG*dT*dG*e[5mC]*eA*e[5mC]) [compound 416938]” as the substance, how does the “% inhibition” value read?
A: 90%

Q: With “416939 (antisense e[5mC]*eA*eG*d[5mC]*dG*dG*dA*d[5mC]*dG*dG*d[5mC]*dA*dT*dT*dG*dG*dT*eG*e[5mC]*eA) [compound 416939]” as the substance, how does the “% inhibition” value read?
A: 88%

Q: “416940 (antisense eG*e[5mC]*eA*dG*d[5mC]*dG*dG*dA*d[5mC]*dG*dG*d[5mC]*dA*dT*dT*dG*dG*eT*eG*e[5mC]) [compound 416940]” was tested. Which “% inhibition” value did it give?
A: 92%

Q: For “416942 (antisense eT*eG*eG*d[5mC]*dA*dG*d[5mC]*dG*dG*dA*d[5mC]*dG*dG*d[5mC]*dA*dT*dT*eG*eG*eT) [compound 416942]”, which “% inhibition” value is on record?
A: 85%

Q: How did the “% inhibition” value turn out when “416943 (antisense e[5mC]*eT*eG*dG*d[5mC]*dA*dG*d[5mC]*dG*dG*dA*d[5mC]*dG*dG*d[5mC]*dA*dT*eT*eG*eG) [compound 416943]” was run?
A: 92%

Q: How did the “% inhibition” value turn out when “416944 (antisense eA*e[5mC]*eT*dG*dG*d[5mC]*dA*dG*d[5mC]*dG*dG*dA*d[5mC]*dG*dG*d[5mC]*dA*eT*eT*eG) [compound 416944]” was run?
A: 83%
